Assay results as given in patent publication US3987052A, “6-Phenyl-4H-s-triazolo[4,3-a][1,4]benzodiazepines” (priority 1969, dated 1976).

Tests used:
Assay type in all cases: in vivo
mice [1] = assay: Pedestal test: mice staying on the pedestal for more than 1 minute; details: Mus musculus
Procedure: (§1) Sedative effects of 8-chloro-1-methyl-6-phenyl-4H-s-triazolo-[4,3-a][1,4]benzodiazepine are shown by the following tests in mice:
Pedestal test: The untreated mouse leaves the pedestal in less than a minute to climb back to the floor of the standard mouse box. Tranquilized mice will stay on the pedestal for more than 1 minute. The ED50 (intraperitoneal administration) is 0.20 mg./kg.; the ED50 (oral administration) is 0.9 mg.kg.

mice [2] = assay: Dish test: mice remaining in Petri dish for more than 3 minutes; details: Mus musculus
Procedure: as §1
Dish test: Mice in Petri dishes (10 cm. diameter, 5 cm. high, partially embedded in wood shavings), climb out in a very short time, when not treated. Mice remaining in the dish for more than 3 minutes indicates tranquilization. ED50 equals the dose of test compound at which 50% of the mice remain in the dish.

mice [3] = assay: Chimney test: ability of mice to back up and out of a vertical glass cylinder within 30 seconds; details: Mus musculus, ip
Procedure: as §1
Chimney test: [Med. Exp. 4, 145 (1961)]: The effective intraperitoneal dosage for 50% of mice (ED50) is 0.09 mg./kg. The test determines the ability of mice to back up and out of a vertical glass cylinder within 30 seconds. At the effective dosage, 50% of the mice failed doing it.

mice [4] = assay: Nicotine antagonism test (nicotine salicylate 2 mg./kg.); details: Mus musculus
Procedure: Nicotine antagonism test: Mice in a group of 6 are injected with the test compound (8-chloro-1-methyl-6-phenyl-4H-s-triazolo[4,3-a][1,4]benzodiazepine). Thirty minutes later the mice including control (untreated) mice are injected with nicotine salicylate (2 mg./kg.). The control mice show overstimulation, i.e., (1) running convulsions followed by (2) tonic extensor fits; followed by (3) death.
Ni =]nicotine antagonism (3) test

mice [5] = assay: Antagonism to strychnine (as sulfate), 3 mg./kg. intraperitoneally; details: Mus musculus, po, 4 h, read-out: effective dosage ED50, antagonism to strychnine
Procedure: Antagonism to strychnine (as sulfate): The effective dosage ED50 of 8-chloro-1-methyl-6-phenyl-4H-s-triazolo[4,3-a][1,4]benzodiazepine is 1 mg./kg. orally in mice. The test consists in orally administering into groups of 6 mice the test compound, 8-chloro-1-methyl-6-phenyl-4H-s-triazolo[4,3-a][1,4]benzodiazepine, and 30 minutes later 3 mg./kg. strychnine sulfate intraperitoneally. The survivors after 4 hours reflect the activity of the compound as a muscle relaxant and antispasmodic. A dosage of 3 mg./kg. of strychnine sulfate is routinely fatal to all the control mice.

[6] = ip, intraperitoneal injection, table 1, read-out: ED50 P (pedestal test)
[7] = ip, intraperitoneal injection, table 1, read-out: ED50 D (dish test)
[8] = intraperitoneal injection, table 1, read-out: ED50 Ch (chimney test)
[9] = ip, intraperitoneal injection, table 1, read-out: ED50 Ni (nicotine antagonism (3) test)

For `Cc1nnc2n1-c1ccc(C(F)(F)F)cc1C(c1ccccc1)=NC2` [1-methyl-6-phenyl-8-(trifluoromethyl)-4H-s-triazolo[4,3-a][1,4]benzodiazepine], the ED50 (mice [1]; [6]) was 0.22 mg/kg, the ED50 (mice [2]; [7]) was 0.16 mg/kg and the ED50 (mice [3]; [8]) was 0.16 mg/kg. It also gave an ED50 (mice [4]; [9]) of 0.08 mg/kg.

With `Cc1nnc2n1-c1ccc(Cl)cc1C(c1ccccc1F)=NC2` [8-chloro-1-methyl-6-(o-fluorophenyl)-4H-s-triazolo[4,3-a][1,4]benzodiazepine] the ED50 (mice [1]; [6]) was 0.028 mg/kg, the ED50 (mice [2]; [7]) was 0.016 mg/kg and the ED50 (mice [3]; [8]) was 0.056 mg/kg. The ED50 (mice [4]; [9]) was 0.009 mg/kg.

`Cc1nnc2n1-c1ccc(Cl)cc1C(c1ccccc1)=NC2` [8-chloro-1-methyl-6-phenyl-4H-s-triazolo[4,3-a][1,4]benzodiazepine] showed an ED50 (mice [1]; ip, intraperitoneal administration, mice, read-out: ED50, pedestal test) of 0.2 mg/kg, an ED50 (mice [1]; oral administration, mice, read-out: ED50, pedestal test) of 0.9 mg/kg and an ED50 (mice [2]; ip, intraperitoneal administration, mice, read-out: ED50, dish test) of 0.15 mg/kg. The ED50 (mice [2]; oral, mice, read-out: oral ED50, dish test) was 0.045 mg/kg, the ED50 (mice [5]) was 1 mg/kg and the ED50 (mice [3]; intraperitoneal, mice, read-out: effective intraperitoneal dosage for 50% of mice (ED50), chimney test) was 0.09 mg/kg. The ED50 (mice [4]; ip, intraperitoneal, 30 minutes before nicotine salicylate 2 mg./kg., mice, read-out: intraperitoneal dosage that protected 50% of the mice against (2) tonic extensor fits and (3) death (ED50)) was 0.1 mg/kg and the ED50 (mice [4]; oral, before nicotine salicylate 2 mg./kg., mice, read-out: oral ED50, nicotine antagonism) was 0.04 mg/kg.

For `Clc1ccc2c(c1)C(c1ccccc1)=NCc1nncn1-2` [8-chloro-6-phenyl-4H-s-triazolo[4,3-a][1,4]benzodiazepine], the ED50 (mice [1]; [6]) was 0.7 mg/kg, the ED50 (mice [2]; [7]) was 0.4 mg/kg and the ED50 (mice [3]; [8]) was 0.25 mg/kg. The ED50 (mice [4]; [9]) was 0.08 mg/kg.

Work on `Cc1nnc2n1-c1ccc(Cl)cc1C(c1c(F)cccc1F)=NC2` [8-chloro-1-methyl-6-(2,6-difluorophenyl)-4H-s-triazolo[4,3-a][1,4]benzodiazepine] yielded an ED50 (mice [1]; [6]) of 0.02 mg/kg, an ED50 (mice [2]; [7]) of 0.016 mg/kg and an ED50 (mice [3]; [8]) of 0.009 mg/kg. It also gave an ED50 (mice [4]; [9]) of 0.018 mg/kg.

In the case of `Cc1nnc2n1-c1ccc(Cl)cc1C(c1ccccc1Cl)=NC2` [8-Chloro-1-methyl-6-(o-chlorophenyl)-4H-s-triazolo[4,3-a][1,4]benzodiazepin], the ED50 (mice [1]; [6]) is reported as 0.045 mg/kg, the ED50 (mice [2]; [7]) is reported as 0.028 mg/kg and the ED50 (mice [3]; [8]) is reported as 0.05 mg/kg. For the same compound, the ED50 (mice [4]; [9]) was 0.008 mg/kg.

Compound `CCc1nnc2n1-c1ccc(Cl)cc1C(c1ccccc1)=NC2` [8-Chloro-1-ethyl-6-phenyl-4H-s-triazolo[4,3-a]-[1,4]benzodiazepine] has an ED50 (mice [1]; [6]) of 0.9 mg/kg, an ED50 (mice [2]; [7]) of 0.9 mg/kg and an ED50 (mice [3]; [8]) of 0.8 mg/kg. It also gave an ED50 (mice [4]; [9]) of 0.2 mg/kg.
